How the values were obtained:
Type in all cases: in vivo
[1] = test system: transplanted Oryza sativa; assay: Test Example 1: effect on crop, application before weed generation in submerged conditions; conditions: Application herbicide amount 320 g/ha; Seventeenth Table
Summary of the method: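 Pre-emergence water-surface application under 4 cm flooding, same day as sowing, with rice transplanted at 2.5 leaf stage. Dose given as g/ha. Plants grown at 25° C. to 30° C. and rated three weeks later on a 0 (≤5%) to 5 (≥90%) herbicidal-ratio scale.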

[2] = test system: Abutilon theophrasti; assay: Test Example 4: herbicidal effect by application to foliage (diluvial soil, plastic box); conditions: application to foliage, application herbicide amount 320 g/ha
Summary of the method: (§1)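 Seeds sown in sterilized diluvial soil, covered ~1.5 cm, grown 14 days in greenhouse at 25° C. to 30° C. Emulsion formulation diluted in water to set rate (g/ha) and sprayed onto stems and leaves. Effect scored visually 3 weeks later on 0–5 scale (5 = ≥90% herbicidal ratio, 0 = ≤5%).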

[3] = test system: Alopecurus myosuroides; assay: as above; conditions: application to foliage, application herbicide amount 320 g/ha
Summary of the method: as §1

[4] = test system: Amaranthus retroflexus; assay: as above; conditions: application to foliage, application herbicide amount 320 g/ha
Summary of the method: as §1

[5] = test system: Apera spica-venti.; assay: as above; conditions: application to foliage, application herbicide amount 320 g/ha
Summary of the method: as §1

[6] = test system: Avena fatua; assay: as above; conditions: application to foliage, application herbicide amount 320 g/ha
Summary of the method: as §1

[7] = test system: Chenopodium album; assay: as above; conditions: application to foliage, application herbicide amount 320 g/ha
Summary of the method: as §1

[8] = test system: Digitaria ciliaris; assay: as above; conditions: application to foliage, application herbicide amount 320 g/ha
Summary of the method: as §1

[9] = test system: Echinochloa crus-galli var. crus-galli; assay: as above; conditions: application to foliage, application herbicide amount 320 g/ha
Summary of the method: as §1

[10] = test system: Galium spurium; assay: as above; conditions: application to foliage, application herbicide amount 320 g/ha
Summary of the method: as §1

[11] = test system: Lolium multiflorum Lam.; assay: as above; conditions: application to foliage, application herbicide amount 320 g/ha
Summary of the method: as §1

[12] = test system: Setaria viridis; assay: as above; conditions: application to foliage, application herbicide amount 320 g/ha
Summary of the method: as §1

[13] = test system: Stellaria media; assay: as above; conditions: application to foliage, application herbicide amount 320 g/ha
Summary of the method: as §1

[14] = test system: Veronica persica; assay: as above; conditions: application to foliage, application herbicide amount 320 g/ha
Summary of the method: as §1

[15] = test system: Beta vulgaris ssp. vulgaris; assay: Test Example 4: effect on crop by application to foliage (diluvial soil, plastic box); conditions: application to foliage, application herbicide amount 320 g/ha
Summary of the method: as §1

[16] = test system: Brassica campestris L.; assay: as above; conditions: application to foliage, application herbicide amount 320 g/ha
Summary of the method: as §1

[17] = test system: Glycine max; assay: as above; conditions: application to foliage, application herbicide amount 320 g/ha
Summary of the method: as §1

[18] = test system: Triticum aestivum; assay: as above; conditions: application to foliage, application herbicide amount 320 g/ha
Summary of the method: as §1

[19] = test system: Zea mays; assay: as above; conditions: application to foliage, application herbicide amount 320 g/ha
Summary of the method: as §1

[20] = test system: directly sowed Oryza sativa; assay: as above; conditions: application to foliage, application herbicide amount 320 g/ha
Summary of the method: as §1

SMILES | a: transplanted Oryza sativa (effect on crop grade) [1] | M: herbicidal effect on Abutilon theophrasti [2] | J: herbicidal effect on Alopecurus myosuroides [3] | N: herbicidal effect on Amaranthus retroflexus [4] | L: herbicidal effect on Apera spica-venti. [5] | I: herbicidal effect on Avena fatua [6] | O: herbicidal effect on Chenopodium album [7] | F: herbicidal effect on Digitaria ciliaris [8] | H: herbicidal effect on Echinochloa crus-galli var. crus-galli [9] | Q: herbicidal effect on Galium spurium [10] | K: herbicidal effect on Lolium multiflorum Lam. [11] | G: herbicidal effect on Setaria viridis [12] | P: herbicidal effect on Stellaria media [13] | R: herbicidal effect on Veronica persica [14] | f: effect on crop, Beta vulgaris ssp. vulgaris [15] | g: effect on crop, Brassica campestris L. [16] | d: effect on crop, Glycine max [17] | e: effect on crop, Triticum aestivum [18] | c: effect on crop, Zea mays [19] | b: effect on crop, directly sowed Oryza sativa [20]
Cn1nnnc1NC(=O)c1ccc(C(F)(F)F)n2c(Cl)nnc12 [2-008] | 1 (Herbicidal ratio of 5% or more and less than 20%) | 5 (Herbicidal ratio of 90% or more (almost completely withered)) | 1 (Herbicidal ratio of 5% or more and less than 20%) | 5 (Herbicidal ratio of 90% or more (almost completely withered)) | 1 (Herbicidal ratio of 5% or more and less than 20%) | 3 (Herbicidal ratio of 40% or more and less than 70%) | 5 (Herbicidal ratio of 90% or more (almost completely withered)) | 3 (Herbicidal ratio of 40% or more and less than 70%) | 4 (Herbicidal ratio of 70% or more and less than 90%) | 3 (Herbicidal ratio of 40% or more and less than 70%) | 2 (Herbicidal ratio of 20% or more and less than 40%) | 2 (Herbicidal ratio of 20% or more and less than 40%) | 5 (Herbicidal ratio of 90% or more (almost completely withered)) | 4 (Herbicidal ratio of 70% or more and less than 90%) | 5 (Herbicidal ratio of 90% or more (almost completely withered)) | 3 (Herbicidal ratio of 40% or more and less than 70%) | 3 (Herbicidal ratio of 40% or more and less than 70%) | 2 (Herbicidal ratio of 20% or more and less than 40%) | 0 (Herbicidal ratio of 5% or less (almost no effect)) | 1 (Herbicidal ratio of 5% or more and less than 20%)
Cn1nnnc1NC(=O)c1ccc(C(F)(F)F)n2c(Br)nnc12 [2-009] | 0 (Herbicidal ratio of 5% or less (almost no effect)) | 5 (Herbicidal ratio of 90% or more (almost completely withered)) | 1 (Herbicidal ratio of 5% or more and less than 20%) | 5 (Herbicidal ratio of 90% or more (almost completely withered)) | 1 (Herbicidal ratio of 5% or more and less than 20%) | 3 (Herbicidal ratio of 40% or more and less than 70%) | 5 (Herbicidal ratio of 90% or more (almost completely withered)) | 4 (Herbicidal ratio of 70% or more and less than 90%) | 5 (Herbicidal ratio of 90% or more (almost completely withered)) | 4 (Herbicidal ratio of 70% or more and less than 90%) | 2 (Herbicidal ratio of 20% or more and less than 40%) | 3 (Herbicidal ratio of 40% or more and less than 70%) | 5 (Herbicidal ratio of 90% or more (almost completely withered)) | 4 (Herbicidal ratio of 70% or more and less than 90%) | 5 (Herbicidal ratio of 90% or more (almost completely withered)) | 4 (Herbicidal ratio of 70% or more and less than 90%) | 4 (Herbicidal ratio of 70% or more and less than 90%) | 1 (Herbicidal ratio of 5% or more and less than 20%) | 1 (Herbicidal ratio of 5% or more and less than 20%) | 2 (Herbicidal ratio of 20% or more and less than 40%)
COCc1nnc2c(C(=O)Nc3nnnn3C)ccc(C(F)(F)F)n12 [2-010, 3-(Methoxymethyl)-N-(1-methyl-1H-tetrazol-5-yl)-5-(trifluoromethyl)-[1,2,4]triazol o[4,3-a]pyridine-8-carboxamide] | 4 (Herbicidal ratio of 70% or more and less than 90%) | 5 (Herbicidal ratio of 90% or more (almost completely withered)) | 3 (Herbicidal ratio of 40% or more and less than 70%) | 5 (Herbicidal ratio of 90% or more (almost completely withered)) | 2 (Herbicidal ratio of 20% or more and less than 40%) | 4 (Herbicidal ratio of 70% or more and less than 90%) | 5 (Herbicidal ratio of 90% or more (almost completely withered)) | 4 (Herbicidal ratio of 70% or more and less than 90%) | 5 (Herbicidal ratio of 90% or more (almost completely withered)) | 4 (Herbicidal ratio of 70% or more and less than 90%) | 3 (Herbicidal ratio of 40% or more and less than 70%) | 3 (Herbicidal ratio of 40% or more and less than 70%) | 5 (Herbicidal ratio of 90% or more (almost completely withered)) | 5 (Herbicidal ratio of 90% or more (almost completely withered)) | 5 (Herbicidal ratio of 90% or more (almost completely withered)) | 5 (Herbicidal ratio of 90% or more (almost completely withered)) | 4 (Herbicidal ratio of 70% or more and less than 90%) | 3 (Herbicidal ratio of 40% or more and less than 70%) | 3 (Herbicidal ratio of 40% or more and less than 70%) | 5 (Herbicidal ratio of 90% or more (almost completely withered))
COc1ccc(-c2nnc3c(C(=O)Nc4nnnn4C)ccc(C(F)(F)F)n23)cc1 [2-011] | 2 (Herbicidal ratio of 20% or more and less than 40%) | 5 (Herbicidal ratio of 90% or more (almost completely withered)) | 3 (Herbicidal ratio of 40% or more and less than 70%) | 5 (Herbicidal ratio of 90% or more (almost completely withered)) | 3 (Herbicidal ratio of 40% or more and less than 70%) | 3 (Herbicidal ratio of 40% or more and less than 70%) | 5 (Herbicidal ratio of 90% or more (almost completely withered)) | 5 (Herbicidal ratio of 90% or more (almost completely withered)) | 5 (Herbicidal ratio of 90% or more (almost completely withered)) | 3 (Herbicidal ratio of 40% or more and less than 70%) | 2 (Herbicidal ratio of 20% or more and less than 40%) | 3 (Herbicidal ratio of 40% or more and less than 70%) | 5 (Herbicidal ratio of 90% or more (almost completely withered)) | 5 (Herbicidal ratio of 90% or more (almost completely withered)) | 5 (Herbicidal ratio of 90% or more (almost completely withered)) | 1 (Herbicidal ratio of 5% or more and less than 20%) | 4 (Herbicidal ratio of 70% or more and less than 90%) | 1 (Herbicidal ratio of 5% or more and less than 20%) | 1 (Herbicidal ratio of 5% or more and less than 20%) | 5 (Herbicidal ratio of 90% or more (almost completely withered))

— US9708314B2, “Heterocyclic amide compound” (NISSAN CHEMICAL INDUSTRIES, LTD., priority 2013, dated 2017)
